Laboratory results taken from ChEMBL document CHEMBL3864140, “Melanogenesis inhibitory activity of a 7-O-9'-linked neolignan from Alpinia galanga fruit” (Bioorg Med Chem, 2016).

Tests used:
[1] = Downregulation of tyrosinase expression in theophylline-stimulated mouse B16-4A5 cells assessed as ratio of tyrosinase mRNA expression to beta-actin mRNA expression at 10 uM after 72 hrs by qRT-PCR analysis (reference value: […] +/- […]); format: functional, cell-based
[2] = Downregulation of TRP2 expression in theophylline-stimulated mouse B16-4A5 cells assessed as ratio of TRP2 mRNA expression to beta-actin mRNA expression at 3 uM after 72 hrs by qRT-PCR analysis (reference value: […] +/- […]); format: functional, cell-based
[3] = Cytotoxicity against theophylline-stimulated mouse B16-4A5 cells assessed as cell viability at 1 uM after 72 hrs by MTT assay relative to control; format: toxicity; conditions: theophylline-stimulated B16-4A5 cells, read-out: Activity
[4] = Downregulation of tyrosinase expression in theophylline-stimulated mouse B16-4A5 cells assessed as ratio of tyrosinase mRNA expression to beta-actin mRNA expression at 3 uM after 72 hrs by qRT-PCR analysis (reference value: […] +/- […]); format: functional, cell-based
[5] = Antimelanogenic activity in theophylline-stimulated mouse B16-4A5 cells assessed as inhibition of melanogenesis after 72 hrs relative to control; format: functional, cell-based
[6] = Antimelanogenic activity in theophylline-stimulated mouse B16-4A5 cells assessed as inhibition of melanogenesis at 1 uM after 72 hrs relative to control; format: functional; conditions: B16-4A5, 72 h
[7] = Antimelanogenic activity in theophylline-stimulated mouse B16-4A5 cells assessed as inhibition of melanogenesis at 3 uM after 72 hrs relative to control; format: functional; conditions: B16-4A5, 72 h
[8] = Downregulation of TRP1 expression in theophylline-stimulated mouse B16-4A5 cells assessed as ratio of TRP1 mRNA expression to beta-actin mRNA expression at 10 uM after 72 hrs by qRT-PCR analysis (reference value: […] +/- […]); format: functional, cell-based
[9] = Cytotoxicity against theophylline-stimulated mouse B16-4A5 cells assessed as cell viability at 3 uM after 72 hrs by MTT assay relative to control; format: toxicity; conditions: theophylline-stimulated B16-4A5 cells, read-out: Activity
[10] = Antimelanogenic activity in theophylline-stimulated mouse B16-4A5 cells assessed as inhibition of melanogenesis at 10 uM after 72 hrs relative to control; format: functional; conditions: B16-4A5, 72 h
[11] = Antimelanogenic activity in theophylline-stimulated mouse B16-4A5 cells assessed as inhibition of melanogenesis at 0.3 uM after 72 hrs relative to control; format: functional; conditions: B16-4A5, 72 h
[12] = Downregulation of TRP1 expression in theophylline-stimulated mouse B16-4A5 cells assessed as ratio of TRP1 mRNA expression to beta-actin mRNA expression at 3 uM after 72 hrs by qRT-PCR analysis (reference value: […] +/- […]); format: functional, cell-based
[13] = Cytotoxicity against theophylline-stimulated mouse B16-4A5 cells assessed as cell viability at 10 uM after 72 hrs by MTT assay relative to control; format: toxicity; conditions: theophylline-stimulated B16-4A5 cells, read-out: Activity
[14] = Downregulation of TRP2 expression in theophylline-stimulated mouse B16-4A5 cells assessed as ratio of TRP2 mRNA expression to beta-actin mRNA expression at 10 uM after 72 hrs by qRT-PCR analysis (reference value: […] +/- […]); format: functional, cell-based
[15] = Cytotoxicity against theophylline-stimulated mouse B16-4A5 cells assessed as cell viability at 0.3 uM after 72 hrs by MTT assay relative to control; format: toxicity; conditions: theophylline-stimulated B16-4A5 cells, read-out: Activity
[16] = Cytotoxicity against theophylline-stimulated mouse B16-4A5 cells assessed as cell viability at 100 uM after 72 hrs by MTT assay relative to control; format: toxicity; conditions: theophylline-stimulated B16-4A5 cells, read-out: Activity
cells [17] = conditions: Mus musculus, B16-4A5, 72 h, read-out: INH
[18] = Cytotoxicity against theophylline-stimulated mouse B16-4A5 cells assessed as cell viability at 30 uM after 72 hrs by MTT assay relative to control; format: toxicity; conditions: theophylline-stimulated B16-4A5 cells, read-out: Activity
cells [19] = conditions: Mus musculus, B16-4A5, 72 h, read-out: INH; remark: listed apart in the source
Description: Antimelanogenic activity in theophylline-stimulated mouse B16-4A5 cells assessed as inhibition of melanogenesis at 30 uM after 72 hrs relative to control

[20] = Potency index, ratio of arbutin IC50 to compound IC50 for antimelanogenic activity in mouse B16-4A5 cells; format: functional

| SMILES | IC50 [5] [µM] | Ratio [1] | Ratio [2] | viability at 72 h, 1 µM [3] [%] | Ratio [4] | inhibition at 1 µM [6] [%] | inhibition at 3 µM [7] [%] | Ratio [8] | viability at 72 h, 3 µM [9] [%] | inhibition at 10 µM [10] [%] | inhibition at 0.3 µM [11] [%] | Ratio [12] | viability at 72 h, 10 µM [13] [%] | Ratio [14] | viability at 72 h, 0.3 µM [15] [%] | viability at 72 h, 100 µM [16] [%] | inhibition at 100 µM (cells [17]) [%] | viability at 72 h, 30 µM [18] [%] | inhibition at 30 µM (cells [19]) [%] | Ratio IC50 [20] |
| --- | --- | --- | --- | --- | --- | --- | --- | --- | --- | --- | --- | --- | --- | --- | --- | --- | --- | --- | --- | --- |
| C=C[C@@H](OC/C=C/c1ccc(OC(C)=O)cc1)c1ccc(OC(C)=O)cc1 | 1.9 | 0.56 | 1.67 | 102 | 0.84 | 31.8 | 71.4 | 0.94 | 81.5 | 137 | 10.8 | 0.92 | 29.7 | 0.88 | 107 | – | – | – | – | – |
| COc1cc(/C=C/CO)ccc1OC(C)=O | 16.9 | – | – | – | – | – | 5.5 | – | 90.6 | 12.9 | – | – | 85.9 | – | – | 41.7 | 63.3 | 60.1 | 102 | – |
| C=C[C@H](OC/C=C/c1ccc(O)cc1)c1ccc(O)cc1 | 3.3 | – | – | 119 | – | 46.4 | 46.4 | – | 120 | 70.5 | 40.4 | – | 114 | – | 111 | – | – | – | – | – |
| C=C[C@@H](OC(C)=O)c1ccc(OC(C)=O)cc1 | 4.5 | – | – | 98.8 | – | 21.2 | 36.8 | – | 95.2 | 69.2 | 8.4 | – | 88.7 | – | 96.6 | – | – | – | – | – |
| O=Cc1ccc(O)cc1 [4-HYDROXYBENZALDEHYDE] | – | – | – | – | – | – | 11.3 | – | 107 | 4.2 | – | – | 103 | – | – | 103 | 3.5 | 107 | 7.9 | – |
| C=C[C@H](OC(C)=O)c1ccc(OC(C)=O)c(OC)c1 | 5.6 | 0.8 | 0.89 | 105 | 1.1 | 15.3 | 16.8 | 0.29 | 101 | 84.4 | -4.9 | 0.52 | 42.3 | 0.88 | 92 | – | – | – | – | >25 - 70 |
| C=C[C@H](O)c1ccc(OC(C)=O)c(OC)c1 | – | – | – | – | – | – | 5 | – | 104 | 10.9 | – | – | 114 | – | – | 124 | 22.9 | 113 | 11.7 | – |

Now from value to compound, other results behind:

| IC50 [5] [µM] | SMILES | Ratio [1] | Ratio [2] | viability at 72 h, 1 µM [3] [%] | Ratio [4] | inhibition at 1 µM [6] [%] | inhibition at 3 µM [7] [%] | Ratio [8] | viability at 72 h, 3 µM [9] [%] | inhibition at 10 µM [10] [%] | inhibition at 0.3 µM [11] [%] | Ratio [12] | viability at 72 h, 10 µM [13] [%] | Ratio [14] | viability at 72 h, 0.3 µM [15] [%] | viability at 72 h, 100 µM [16] [%] | inhibition at 100 µM (cells [17]) [%] | viability at 72 h, 30 µM [18] [%] | inhibition at 30 µM (cells [19]) [%] | Ratio IC50 [20] |
| --- | --- | --- | --- | --- | --- | --- | --- | --- | --- | --- | --- | --- | --- | --- | --- | --- | --- | --- | --- | --- |
| 3 | C=CC(OC/C=C/c1ccc(O)cc1)c1ccc(O)cc1 (racemic) | – | – | 95.1 | – | 43.6 | 50.9 | – | 104 | 77.4 | 26.7 | – | 105 | – | 102 | – | – | – | – | – |
| 2.2 | C=CC(OC/C=C/c1ccc(OC(C)=O)cc1)c1ccc(OC(C)=O)cc1 (racemic) | 0.6 | 0.86 | 99.3 | 0.77 | 32.4 | 57.2 | 0.81 | 85.2 | -5.5 | 10.3 | 0.79 | 12.9 | 0.81 | 105 | – | – | – | – | – |
| 29.4 | CC(=O)Oc1ccc(/C=C/CO)cc1 | – | – | – | – | – | 10.7 | – | 92.9 | 18 | – | – | 85.8 | – | – | 44.9 | 94.8 | 65.5 | 96.9 | – |
| 49.2 | COc1cc(C=O)ccc1O [VANILLIN] | – | – | – | – | – | -8.4 | – | 108 | 8.4 | – | – | 104 | – | – | 106 | 96.1 | 104 | 49.7 | – |
